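These data come from cells grown in 96-well plates and exposed to compound for 48 hours at five concentrations. GI50 = concentration required for 50% inhibition of growth. TGI marks complete inhibition of growth.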
Key:
Assay in all cases: NCI-60 cell line screen, 48 h
786-0 renal = test system: 786-0 renal
A498 renal = test system: A498 renal
A549 NSCLC = test system: A549 NSCLC
ACHN renal = test system: ACHN renal
BT-549 breast = test system: BT-549 breast
CAKI-1 renal = test system: CAKI-1 renal
CCRF-CEM leukemia = test system: CCRF-CEM leukemia
COLO 205 colon = test system: COLO 205 colon
DU-145 prostate = test system: DU-145 prostate
EKVX NSCLC = test system: EKVX NSCLC
HCC-2998 colon = test system: HCC-2998 colon
HCT-116 colon = test system: HCT-116 colon
HCT-15 colon = test system: HCT-15 colon
HL-60(TB) leukemia = test system: HL-60(TB) leukemia
HOP-62 NSCLC = test system: HOP-62 NSCLC
HOP-92 NSCLC = test system: HOP-92 NSCLC
HS 578T breast = test system: HS 578T breast
HT29 colon = test system: HT29 colon
IGROV1 ovarian = test system: IGROV1 ovarian
K-562 leukemia = test system: K-562 leukemia
KM12 colon = test system: KM12 colon
LOX IMVI melanoma = test system: LOX IMVI melanoma
MALME-3M melanoma = test system: MALME-3M melanoma
MCF7 breast = test system: MCF7 breast
MDA-MB-231 breast = test system: MDA-MB-231 breast
MDA-MB-435 = test system: MDA-MB-435
MOLT-4 leukemia = test system: MOLT-4 leukemia
NCI-H226 lung = test system: NCI-H226 lung
NCI-H23 lung = test system: NCI-H23 lung
NCI-H460 lung = test system: NCI-H460 lung
NCI-H522 lung = test system: NCI-H522 lung
NCI/ADR-RES ovarian = test system: NCI/ADR-RES ovarian
OVCAR-3 ovarian = test system: OVCAR-3 ovarian
OVCAR-4 ovarian = test system: OVCAR-4 ovarian
OVCAR-5 ovarian = test system: OVCAR-5 ovarian
OVCAR-8 ovarian = test system: OVCAR-8 ovarian
PC-3 prostate = test system: PC-3 prostate
RPMI-8226 leukemia = test system: RPMI-8226 leukemia
RXF 393 renal = test system: RXF 393 renal
SF-268 CNS = test system: SF-268 CNS
SF-295 CNS = test system: SF-295 CNS
SF-539 CNS = test system: SF-539 CNS
SK-MEL-2 melanoma = test system: SK-MEL-2 melanoma
SK-MEL-28 melanoma = test system: SK-MEL-28 melanoma
SK-MEL-5 melanoma = test system: SK-MEL-5 melanoma
SK-OV-3 ovarian = test system: SK-OV-3 ovarian
SN12C renal = test system: SN12C renal
SNB-19 CNS = test system: SNB-19 CNS
SNB-75 CNS = test system: SNB-75 CNS
SR leukemia = test system: SR leukemia
SW-620 colon = test system: SW-620 colon
T-47D breast = test system: T-47D breast
TK-10 renal = test system: TK-10 renal
U251 CNS = test system: U251 CNS
UACC-257 melanoma = test system: UACC-257 melanoma
UACC-62 melanoma = test system: UACC-62 melanoma
UO-31 renal = test system: UO-31 renal

CCN(CC)c1ccc2c(cc1=O)[C@@H](NC(C)=O)CCc1cc(OC)c(OC)c(OC)c1-2
GI50 (786-0 renal): 622 nM | TGI (786-0 renal): > 100000 nM | GI50 (A498 renal): 260 nM | GI50 (A549 NSCLC): 744 nM | TGI (A549 NSCLC): > 100000 nM | GI50 (ACHN renal): 2620 nM | TGI (ACHN renal): > 100000 nM | GI50 (BT-549 breast): 245 nM | TGI (BT-549 breast): 7280 nM | GI50 (CAKI-1 renal): 4620 nM | TGI (CAKI-1 renal): > 100000 nM | GI50 (CCRF-CEM leukemia): 213 nM | TGI (CCRF-CEM leukemia): > 100000 nM | GI50 (COLO 205 colon): 101 nM | TGI (COLO 205 colon): 500 nM | GI50 (DU-145 prostate): 368 nM | GI50 (EKVX NSCLC): 714 nM | TGI (EKVX NSCLC): > 100000 nM | GI50 (HCC-2998 colon): 347 nM | TGI (HCC-2998 colon): > 100000 nM | GI50 (HCT-116 colon): 205 nM | TGI (HCT-116 colon): > 100000 nM | GI50 (HCT-15 colon): 2640 nM | TGI (HCT-15 colon): > 100000 nM | GI50 (HL-60(TB) leukemia): 63.3 nM | TGI (HL-60(TB) leukemia): 319 nM | GI50 (HOP-62 NSCLC): 563 nM | TGI (HOP-62 NSCLC): > 100000 nM | GI50 (HOP-92 NSCLC): 7110 nM | TGI (HOP-92 NSCLC): > 100000 nM | GI50 (HS 578T breast): 648 nM | TGI (HS 578T breast): > 100000 nM | GI50 (HT29 colon): 331 nM | GI50 (IGROV1 ovarian): 510 nM | TGI (IGROV1 ovarian): > 100000 nM | GI50 (K-562 leukemia): 224 nM | TGI (K-562 leukemia): > 100000 nM | GI50 (KM12 colon): 282 nM | TGI (KM12 colon): > 100000 nM | GI50 (LOX IMVI melanoma): 345 nM | TGI (LOX IMVI melanoma): > 100000 nM | GI50 (MALME-3M melanoma): > 100000 nM | TGI (MALME-3M melanoma): > 100000 nM | GI50 (MCF7 breast): 148 nM | TGI (MCF7 breast): > 100000 nM | GI50 (MDA-MB-231 breast): 552 nM | TGI (MDA-MB-231 breast): > 100000 nM | GI50 (MDA-MB-435): 59.4 nM | TGI (MDA-MB-435): 305 nM | GI50 (MOLT-4 leukemia): 511 nM | TGI (MOLT-4 leukemia): > 100000 nM | GI50 (NCI-H226 lung): 409 nM | TGI (NCI-H226 lung): > 100000 nM | GI50 (NCI-H23 lung): 578 nM | TGI (NCI-H23 lung): > 100000 nM | GI50 (NCI-H460 lung): 359 nM | TGI (NCI-H460 lung): > 100000 nM | GI50 (NCI-H522 lung): 218 nM | TGI (NCI-H522 lung): 579 nM | GI50 (NCI/ADR-RES ovarian): 14300 nM | TGI (NCI/ADR-RES ovarian): > 100000 nM | GI50 (OVCAR-3 ovarian): 250 nM | TGI (OVCAR-3 ovarian): 647 nM | GI50 (OVCAR-4 ovarian): 3320 nM | TGI (OVCAR-4 ovarian): > 100000 nM | GI50 (OVCAR-5 ovarian): 2450 nM | TGI (OVCAR-5 ovarian): > 100000 nM | GI50 (OVCAR-8 ovarian): 467 nM | TGI (OVCAR-8 ovarian): > 100000 nM | GI50 (PC-3 prostate): 366 nM | TGI (PC-3 prostate): > 100000 nM | GI50 (RPMI-8226 leukemia): 288 nM | TGI (RPMI-8226 leukemia): > 100000 nM | GI50 (RXF 393 renal): 381 nM | TGI (RXF 393 renal): > 100000 nM | GI50 (SF-268 CNS): 511 nM | TGI (SF-268 CNS): > 100000 nM | GI50 (SF-295 CNS): 277 nM | TGI (SF-295 CNS): > 100000 nM | GI50 (SF-539 CNS): 217 nM | GI50 (SK-MEL-2 melanoma): 275 nM | TGI (SK-MEL-2 melanoma): > 100000 nM | GI50 (SK-MEL-28 melanoma): > 100000 nM | TGI (SK-MEL-28 melanoma): > 100000 nM | GI50 (SK-MEL-5 melanoma): 302 nM | TGI (SK-MEL-5 melanoma): 1560 nM | GI50 (SK-OV-3 ovarian): 407 nM | TGI (SK-OV-3 ovarian): > 100000 nM | GI50 (SN12C renal): 691 nM | TGI (SN12C renal): > 100000 nM | GI50 (SNB-19 CNS): 409 nM | TGI (SNB-19 CNS): > 100000 nM | GI50 (SNB-75 CNS): 321 nM | TGI (SNB-75 CNS): > 100000 nM | GI50 (SR leukemia): 52.9 nM | TGI (SR leukemia): > 100000 nM | GI50 (SW-620 colon): 287 nM | TGI (SW-620 colon): > 100000 nM | GI50 (T-47D breast): > 100000 nM | TGI (T-47D breast): > 100000 nM | GI50 (TK-10 renal): 65200 nM | TGI (TK-10 renal): > 100000 nM | GI50 (U251 CNS): 407 nM | TGI (U251 CNS): > 100000 nM | GI50 (UACC-257 melanoma): > 100000 nM | TGI (UACC-257 melanoma): > 100000 nM | GI50 (UACC-62 melanoma): 311 nM | TGI (UACC-62 melanoma): > 100000 nM | GI50 (UO-31 renal): 6720 nM | TGI (UO-31 renal): > 100000 nM
